Data: ChEMBL document CHEMBL1909294, “Translating clinical findings into knowledge in drug safety evaluation--drug induced liver injury prediction system (DILIps)” (PLoS Comput Biol, 2011)

Experiments:
[1] = tested on: Hepatotoxicity;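 as to HepSE bilirubinemia: bilirubinemia hepatic side effect score drawn from the DILIps training data, a prediction system for drug-induced liver injury; call rule not given here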;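 as to HepSE cholecystitis: Cholecystitis-related hepatic side effect score drawn from the DILIps (drug-induced liver injury prediction) training data set; call rule not given here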;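 as to HepSE cholelithiasis: hepatic side effect score for cholelithiasis, drawn from the DILIps training data for predicting drug-induced liver injury; call rule not given here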;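 as to HepSE cirrhosis: cirrhosis hepatic side effect score taken from the DILIps (drug-induced liver injury prediction) training set; call rule not given here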;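 as to HepSE elevated liver function tests: hepatic side effect score for raised liver function tests, as recorded in the DILIps training set used for predicting drug-induced liver injury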; as to HepSE hepatic failure: call rule not given here;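 as to HepSE hepatomegaly: hepatic side effect score for hepatomegaly, taken from the training set of the DILIps drug-induced liver injury prediction system; call rule not given here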
[2] = tested on: Hepatotoxicity; remark: listed apart in the source;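 as to HepSE bilirubinemia: bilirubinemia hepatic side effect score drawn from the DILIps training data, a prediction system for drug-induced liver injury; call rule not given here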;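 as to HepSE cholecystitis: Cholecystitis-related hepatic side effect score drawn from the DILIps (drug-induced liver injury prediction) training data set; call rule not given here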;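 as to HepSE cholelithiasis: hepatic side effect score for cholelithiasis, drawn from the DILIps training data for predicting drug-induced liver injury; call rule not given here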;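 as to HepSE cirrhosis: cirrhosis hepatic side effect score taken from the DILIps (drug-induced liver injury prediction) training set; call rule not given here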;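 as to HepSE elevated liver function tests: hepatic side effect score for raised liver function tests, as recorded in the DILIps training set used for predicting drug-induced liver injury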; as to HepSE hepatic failure: call rule not given here
[3] = tested on: Hepatotoxicity; remark: listed apart in the source;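 as to HepSE bilirubinemia: bilirubinemia hepatic side effect score drawn from the DILIps training data, a prediction system for drug-induced liver injury; call rule not given here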;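 as to HepSE cholecystitis: Cholecystitis-related hepatic side effect score drawn from the DILIps (drug-induced liver injury prediction) training data set; call rule not given here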;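 as to HepSE cholelithiasis: hepatic side effect score for cholelithiasis, drawn from the DILIps training data for predicting drug-induced liver injury; call rule not given here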;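 as to HepSE cirrhosis: cirrhosis hepatic side effect score taken from the DILIps (drug-induced liver injury prediction) training set; call rule not given here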;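 as to HepSE elevated liver function tests: hepatic side effect score for raised liver function tests, as recorded in the DILIps training set used for predicting drug-induced liver injury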; as to HepSE hepatic failure: call rule not given here
[4] = tested on: Hepatotoxicity; remark: listed apart in the source;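 as to HepSE bilirubinemia: bilirubinemia hepatic side effect score drawn from the DILIps training data, a prediction system for drug-induced liver injury; call rule not given here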;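 as to HepSE cholecystitis: Cholecystitis-related hepatic side effect score drawn from the DILIps (drug-induced liver injury prediction) training data set; call rule not given here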;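 as to HepSE cholelithiasis: hepatic side effect score for cholelithiasis, drawn from the DILIps training data for predicting drug-induced liver injury; call rule not given here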;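 as to HepSE cirrhosis: cirrhosis hepatic side effect score taken from the DILIps (drug-induced liver injury prediction) training set; call rule not given here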;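 as to HepSE elevated liver function tests: hepatic side effect score for raised liver function tests, as recorded in the DILIps training set used for predicting drug-induced liver injury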; as to HepSE hepatic failure: call rule not given here
[5] = tested on: Hepatotoxicity; remark: listed apart in the source; as to HepSE hepatic failure: call rule not given here
[6] = tested on: Hepatotoxicity; remark: listed apart in the source; as to HepSE hepatic failure: call rule not given here
[7] = tested on: Hepatotoxicity; remark: listed apart in the source
[8] = tested on: Hepatotoxicity; remark: listed apart in the source
[9] = tested on: Hepatotoxicity; remark: listed apart in the source
[10] = tested on: Hepatotoxicity; remark: listed apart in the source
[11] = tested on: Hepatotoxicity; remark: listed apart in the source
[12] = tested on: Hepatotoxicity; remark: listed apart in the source
[13] = tested on: Hepatotoxicity; remark: listed apart in the source
[14] = tested on: Hepatotoxicity; remark: listed apart in the source

Row | Structure (SMILES) | HepSE_bilirubinemia [1] | HepSE_cholecystitis [2] | HepSE_cholelithiasis [3] | HepSE_cirrhosis [4] | HepSE_elevated liver function tests [5] | HepSE_hepatic failure [6] | HepSE_hepatic necrosis [7] | HepSE_hepatitis [8] | HepSE_hepatomegaly [9] | HepSE_jaundice [10] | HepSE_liver disease [11] | HepSE_liver fatty [12] | HepSE_liver function tests abnormal [13] | HepSE_Combined Scores [14]
1 | [N]=O [NITRIC OXIDE] | 0 | 0 | 0 | 0 | 0 | 0 | 0 | 0 | 0 | 0 | 0 | 0 | 0 | 0
2 | CCN1CCN(C(=O)N[C@@H](C(=O)N[C@@H]2C(=O)N3[C@@H]2SC(C)(C)[C@@H]3C(=O)O)c2ccccc2)C(=O)C1=O [PIPERACILLIN] | 1 | 0 | 0 | 0 | 0 | 0 | 0 | 1 | 0 | 0 | 1 | 0 | 0 | 3
3 | Cc1onc(-c2ccccc2)c1-c1ccc(S(N)(=O)=O)cc1 [VALDECOXIB] | 0 | 0 | 1 | 0 | 0 | 0 | 0 | 1 | 0 | 0 | 0 | 0 | 0 | 2
4 | OCCN1CCN(CCCN2c3ccccc3Sc3ccc(C(F)(F)F)cc32)CC1 [FLUPHENAZINE] | 0 | 0 | 0 | 0 | 0 | 0 | 0 | 1 | 0 | 1 | 0 | 0 | 0 | 2
5 | Cc1cn([C@H]2C[C@H](O)[C@@H](CO)O2)c(=O)[nH]c1=O [DOXRIBTIMINE] | 0 | 0 | 0 | 0 | 0 | 0 | 0 | 1 | 0 | 0 | 0 | 0 | 0 | 1
6 | [Ca+2].[H-].[H-] | 0 | 0 | 0 | 0 | 0 | 0 | 0 | 0 | 0 | 0 | 0 | 0 | 0 | 0
7 | CCCc1nc2c(C)cc(-c3nc4ccccc4n3C)cc2n1Cc1ccc(-c2ccccc2C(=O)O)cc1 | 0 | 0 | 0 | 0 | 0 | 0 | 0 | 0 | 0 | 0 | 1 | 0 | 0 | 1
8 | Cc1nc2n(c(=O)c1CCN1CCC(c3noc4cc(F)ccc34)CC1)CCCC2 [RISPERIDONE] | 1 | 1 | 1 | 0 | 0 | 1 | 0 | 1 | 1 | 1 | 0 | 1 | 0 | 8
